Test results as given in ChEMBL document CHEMBL1201862, “PubChem BioAssay data set” (2004).
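48-hour exposure; five concentrations; linearly interpolated endpoints. GI50 = concentration required for 50% inhibition of growth.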 Active and inactive are the calls of the source. No stated cut-off is given here; in the data, active = GI50 up to about 1.1 µM and inactive = higher.

Tests used:
Assay in all cases: NCI tumour cell line growth inhibition, 48 h
DMS-273 = system: DMS-273
DLD-1 = system: DLD-1
RXF 631 = system: RXF 631
LXFL 529 = system: LXFL 529
SNB-78 = system: SNB-78
DMS-114 = system: DMS-114
M19-MEL = system: M19-MEL
KM-20L2 = system: KM-20L2
XF498 = system: XF498

Structure (SMILES)	GI50 (DMS-273)	GI50 (DLD-1)	GI50 (RXF 631)	GI50 (LXFL 529)	GI50 (SNB-78)	GI50 (DMS-114)	GI50 (M19-MEL)	GI50 (KM-20L2)	GI50 (XF498)
CCN(CCCl)CCCCNc1c2ccccc2nc2ccc(OC)cc12	0.0865 µM (active)	0.0891 µM (active)	0.553 µM (active)	0.0923 µM (active)	0.527 µM (active)	0.323 µM (active)	0.235 µM (active)	0.238 µM (active)	
O=C1COc2cc3c(cc2N1)SCC(=O)N3	> 100 µM (inactive)	> 100 µM (inactive)	> 100 µM (inactive)	> 100 µM (inactive)	> 100 µM (inactive)	> 100 µM (inactive)	> 100 µM (inactive)		> 100 µM (inactive)
COc1cccc(NC(=O)CSc2nnc(-c3ccc(/N=C\c4ccc(Cl)cc4)cc3)o2)c1	> 10 µM (inactive)			19.8 µM (inactive)	40.3 µM (inactive)	20.5 µM (inactive)	22.8 µM (inactive)	16.9 µM (inactive)	19.2 µM (inactive)
COc1cc(/C=C2\CCC/C(=C\c3ccc(O)c(OC)c3)C2=O)ccc1O [CYCLOVALONE]	1.51 µM (inactive)	1.75 µM (inactive)		1.85 µM (inactive)	2.75 µM (inactive)	1.77 µM (inactive)	1.86 µM (inactive)	15.2 µM (inactive)	5.7 µM (inactive)
C=CC[C@@]1(C#N)C[C@H](C[C@]2(C#N)C[C@H](CCl)OC(C)(C)O2)OC(C)(C)O1	> 100 µM (inactive)	> 100 µM (inactive)				41.2 µM (inactive)	> 100 µM (inactive)	> 100 µM (inactive)	81.1 µM (inactive)
O=C(OCCOCBr)c1ccccc1	> 100 µM (inactive)	> 100 µM (inactive)	> 100 µM (inactive)	> 100 µM (inactive)	> 100 µM (inactive)	> 100 µM (inactive)		> 100 µM (inactive)	
C/N=C(\N)c1ccc(NC(=N)c2ccc(C(=N)Nc3ccc(/C(N)=N/C)cc3)cc2)cc1	> 100 µM (inactive)		> 100 µM (inactive)	> 100 µM (inactive)		> 100 µM (inactive)	> 100 µM (inactive)		
CCCC/C=C/C1Cc2ccccc2CN1S(=O)(=O)c1ccc(C)cc1 (stereo unspecified)	7.71 µM (inactive)	7.71 µM (inactive)	5.78 µM (inactive)	5.42 µM (inactive)		3.03 µM (inactive)	6.01 µM (inactive)	11.6 µM (inactive)	17 µM (inactive)
CNC1=C(C)C(=O)C(C)=C(C(C)(C)CC(=O)n2cc(F)c(=O)[nH]c2=O)C1=O	23.1 µM (inactive)	12.8 µM (inactive)	23.4 µM (inactive)	> 89.1 µM (inactive)	> 100 µM (inactive)	74.6 µM (inactive)	49.7 µM (inactive)	31.3 µM (inactive)	97.7 µM (inactive)
NCC1(N2CCOCC2)C2CCCC21CO (stereo unspecified)	> 100 µM (inactive)	> 100 µM (inactive)		> 100 µM (inactive)	> 100 µM (inactive)	> 100 µM (inactive)	> 100 µM (inactive)		
O=C(O)CCNS(=O)(=O)c1ccc2ccccc2c1	> 100 µM (inactive)	> 100 µM (inactive)		> 100 µM (inactive)			> 100 µM (inactive)	> 100 µM (inactive)	> 100 µM (inactive)
c1ccc(N2N=NC3C4CC(C5c6ccccc6C45)C32)cc1 (stereo unspecified)	47.1 µM (inactive)	32.5 µM (inactive)	34.7 µM (inactive)	44 µM (inactive)	43.4 µM (inactive)	19.9 µM (inactive)	22.7 µM (inactive)	32.4 µM (inactive)	19.1 µM (inactive)
O=C(CCC(=O)Nc1ccc(Cl)c(Cl)c1)Cc1nc2ccccc2o1	> 100 µM (inactive)		> 100 µM (inactive)	> 100 µM (inactive)	> 100 µM (inactive)	> 100 µM (inactive)	> 100 µM (inactive)	> 100 µM (inactive)	
CCOc1cc2ccc3c4cc(OC)c(OC)cc4cnc3c2cc1OCC		> 100 µM (inactive)		> 100 µM (inactive)	> 100 µM (inactive)	> 100 µM (inactive)	> 100 µM (inactive)	> 100 µM (inactive)	> 100 µM (inactive)
CC(C)N(C(=O)C12C3C4C5C3C1(C(=O)N(C(C)C)C(C)C)C5(C#N)C42)C(C)C (stereo unspecified)	45.8 µM (inactive)	27.1 µM (inactive)	> 100 µM (inactive)	> 100 µM (inactive)	> 100 µM (inactive)	> 100 µM (inactive)	> 100 µM (inactive)	> 100 µM (inactive)	> 100 µM (inactive)
Cc1ccc2nc(NC(=O)/C(=N\NC(=S)NN)C3C(=O)NC(=S)NC3=O)sc2c1	> 100 µM (inactive)	> 100 µM (inactive)	> 100 µM (inactive)	> 100 µM (inactive)	> 100 µM (inactive)			> 100 µM (inactive)	> 100 µM (inactive)
Cn1cc2ccccc2c1-c1nc(F)nc(Oc2ccc3c(c2)CC[C@@H]2C3CC[C@]3(C)C(O)CCC23)n1 (stereo partly specified)	19.8 µM (inactive)	15.9 µM (inactive)		10.4 µM (inactive)	12.2 µM (inactive)	13.8 µM (inactive)	21.7 µM (inactive)	20.2 µM (inactive)	
COc1cc(C(Cc2ccccc2)NC(C)=O)oc(=O)c1 (stereo unspecified)	> 100 µM (inactive)	> 100 µM (inactive)		> 100 µM (inactive)		> 100 µM (inactive)	> 100 µM (inactive)	> 100 µM (inactive)	> 100 µM (inactive)
COC(=O)C(=O)C(C(=O)C(=O)Nc1ccccc1C(N)=O)c1nc2ccc(C(=O)c3ccccc3)cc2nc1O (stereo unspecified)	62.8 µM (inactive)		> 100 µM (inactive)	44.6 µM (inactive)	68.7 µM (inactive)	> 100 µM (inactive)	> 100 µM (inactive)	> 100 µM (inactive)	> 100 µM (inactive)
O=C(O)[C@H](NS(=O)(=O)c1ccc([N+](=O)[O-])cc1)c1ccccc1	> 100 µM (inactive)	> 100 µM (inactive)	> 100 µM (inactive)	> 100 µM (inactive)	> 100 µM (inactive)	> 100 µM (inactive)	> 100 µM (inactive)	> 100 µM (inactive)	> 100 µM (inactive)
Nc1ccc(C(=O)CC2(O)C(=O)Nc3c(Cl)cc(Cl)cc32)cc1 (stereo unspecified)		42.9 µM (inactive)	28.8 µM (inactive)	37.8 µM (inactive)			47 µM (inactive)	> 100 µM (inactive)	
COc1ccc(C2C(C(=O)O)=C(COC(C)=O)Oc3cc4c(cc32)OCO4)c(OC)c1 (stereo unspecified)	> 100 µM (inactive)	> 100 µM (inactive)	> 100 µM (inactive)		> 100 µM (inactive)	> 100 µM (inactive)	> 100 µM (inactive)	> 100 µM (inactive)	> 100 µM (inactive)
C=C1CCC2C(C)(CO)C(O)CCC2(C)C1CC(O)C1=CCOC1=O (stereo unspecified)	> 100 µM (inactive)	86.3 µM (inactive)	30.5 µM (inactive)	27 µM (inactive)		41.8 µM (inactive)	45.5 µM (inactive)	47.4 µM (inactive)	
[O-][N+]1=C(c2ccccc2)COc2ccccc21	> 100 µM (inactive)	> 100 µM (inactive)	70.1 µM (inactive)	> 100 µM (inactive)	> 100 µM (inactive)	> 100 µM (inactive)	> 100 µM (inactive)	> 100 µM (inactive)	
